Several values for one entry are separate records, joined by “and”; a condition that tells them apart may be missing. Identical values can stand only once.
How the values were obtained:
[1] = GLP toxicity test; cited from earlier work
sepsis animal model = conditions: cecal-ligation-puncture sepsis model; cited from earlier work
[2] = test system: hematopoietic stem cells and megakaryocytes; conditions: cited from earlier work
[3] = test system: recurrent oral ulceration (ROU); experiment: In vivo effect of PLAG on recurrent oral ulceration in patients, self-reported scoring system; design: species or system human
From the text: Total 44 patients with recurrent oral ulceration (ROU) between 20 and 80 years old (34 female patients and 10 male patients, Disease; RAS ([…]), BD (27 patients), SLE (1 patient), Mean age: 49.3±9.0) were enrolled in the study. The diagnosis of ROU was made based upon the history and the physical examination on oral mucosa by physicians. We included three conditions with recurrent oral ulceration: Recurrent aphthous stomatitis (RAS), Behcet's disease (BD), Systemic lupus erythematosus (SLE). After completing baseline assessments, 250 mg of PLAG was administered to the patients orally twice a day (250 mg PLAG per tablet, 500 mg/day) for 2-4 weeks. The change of recurrent oral ulcer in the patients was evaluated at 2 or 4 weeks after the treatment by using self-reported scoring system (total 12 points), including the following three measurements: change of ulcer frequency (Likert 0-4), Change of ulcer severity: pain & size (Likert 0-4) and Change of ulcer duration (Likert 0-4).

[4] = 44 patients, relation to PLAG cannot be excluded
[5] = average of 44 patients, 500 mg/day orally, 2-4 weeks

SMILES: CCCCC/C=C\C/C=C\CCCCCCCC(=O)OC(COC(C)=O)COC(=O)CCCCCCCCCCCCCCC (stereo not shown) [PLAG, 1-palmitoyl-2-linoleoyl-3-acetylglycerol]
- toxicity [1]: no toxicity
- survivability ratio of animals (sepsis animal model): increases survivability ratio of animals
- growth-stimulating activities [2]: have growth-stimulating activities of hematopoietic stem cells and megakaryocytes
- side effect of PLAG ([3]; 44 patients, 500 mg/day orally, 2-4 weeks): any clear side effect of PLAG was not identified
- patients with mild dyspepsia [3, 4]: two
- patients with mild skin rash [3, 4]: one
- patients with mild taste change (metallic taste) [3, 4]: one
- effect on symptoms of oral ulceration ([3]; administration of PLAG to the patients): significantly improves the symptoms of oral ulceration
- change of ulcer duration (Likert 0-4), average [3, 5]: 1.86±0.72 and 1.86
- change of ulcer frequency (Likert 0-4), average [3, 5]: 2.07±0.55 and 2.07
- change of ulcer severity: pain & size (Likert 0-4), average [3, 5]: 2.13±0.68 and 2.14
- total (sum of the three scores), average [3, 5]: 5.93±1.76 points and 5.93 points
- significant improvement ([3]; individual patient, 1 or 0 from sum of the three scores): 1 (considered to be significantly improved when the sum of the three scores was more than 5 points)

Reference: US9808438B2, “Method for treating mucositis” (ENZYCHEM LIFESCIENCES CORPORATION, priority 2015, dated 2017)
